{"source": "patent US6509355B1", "about": "“Treatment of disorders of the outer retina” (Alcon Laboratories, Inc., priority 1998, dated 2003)", "key": {"retinal laser burn": {"system": "retinal laser burn", "test": "Retinal laser burn spread damage: argon laser, lesion area in outer nuclear layer after 48 hours", "format": "in vivo, Pigmented Long Evans rats", "excerpt": "The eye is exposed to high-energy laser radiation during the performance of retinal photocoagulation therapy (grid, focal and […]) or during photodynamic therapy. This type of therapy is often employed during treatment of choroidal neovascularization, proliferative stages of diabetic retinopathy, retinopathy of prematurity, or to repair retinal holes or […]. Associated with this laser therapy is tissue destruction leading to vision deterioration. […] It is believed that this vision loss results directly from the expansion of the laser-induced lesion to surrounding normal neurosensory retina and RPE. Singlet oxygen and other reactive oxygen species as well as cytokines are generated in the area of the laser burn and thought to migrate laterally to cause collateral retinal damage. Retinal morphology changes in this area are similar to changes in our photo-oxidative retinopathy paradigm. […] Pigmented Long Evans rats were randomly assigned to control, vehicle or drug dosed groups. […] After a 48-hour recovery period, eyes were fixed, dehydrated, and embedded in plastic resin. Histological assessment of laser burns was performed by flatmounting the retina and sectioning the tissue in a plane tangential to the nerve fiber layer. Using this technique, the lesion area in the outer nuclear layer could be calculated using an image analysis system. […] The laser bum center was marked by; complete closure of all capillaries, arterioles and venuoles; perforation of Bruch's membrane; pyknosis and necrosis of all photoreceptor nuclei; and destruction of inner and outer segments. Spread of the lesion into peripheral retina consisted of shortening of outer segments, inner segment swelling, clumping of melanin granules in the RPE and choroid, and vacuolization of the RPE."}, "[1]": {"system": "photo-oxidative induced retinopathy", "test": "Photo-oxidative induced retinopathy: 6-hour blue light exposure, ERG after 5-day recovery", "details": "rat, in vivo", "excerpt": "Photic retinopathy results from excessive excitation of the retinal pigment epithelium and neuroretina by absorption of visible or near ultraviolet radiation. Lesion severity is dependent upon wavelength, irradiance, exposure duration, species, ocular pigmentation, and age. Damage may result from peroxidation of cellular membranes, inactivation of mitochondrial enzymes such as cytochrome oxidase, or increased intracellular calcium. Cellular damage resulting from photo-oxidative stress leads to cell death by apoptosis, (Shahinfar, S., Edward. D. P. and Tso, M. O. (1991), A pathologic study of photoreceptor cell death in retinal photic injury. Current Eye Research, 10:47-59: Abler, A. S., Chang, C. J., Fu, J. and Tso, M. O. (1994), Photic injury triggers apoptosis of photoreceptor cells. Investigative Ophthalmology & Visual Science, 35(Suppl):1517). Oxidative stress induced apoptosis has been implicated as a cause of many ocular pathologies, including, iatrogenic retinopathy, macular degeneration, retinitis pigmentosa and other forms of heredodegenerative disease, ischemic retinopathy, retinal tears, retinal detachment, glaucoma and retinal neovascularization (Chang, C. J., Lai, W. W., Edward, D. P. and Tso, M. O. (1995), Apoptotic photoreceptor cell death after traumatic retinal detachment in humans, Archives of Ophthalmology, 113:880-886: Portera-Cailliau, C., Sung, C. H., Nathans, J. and Adler, R. (1994), Apoptotic photoreceptor cell death in mouse models of retinitis pigmentosa, Proceedings of National Academy of Science (U.S.A.), 91:974-978; Buchi, E. R. (1992), Cell death in the rat retina after a pressure-induced ischaemia-reperfusion insult: an electron microscopic study. I. Ganglion cell layer and inner nuclear layer, Experimental Eye Research, 55:605-613; Quigley, H. A., Nickells. R. W., Kerrigan, L. A., Pease, M. E., Thibault, D. J. and Zack, D. J. (1995), Retinal ganglion cell death in experimental glaucoma and after axotomy occurs by apoptosis, Investigative Ophthalmology & Visual Science, 36:774-786). […] Alan R. Liss, Inc., New York; Collier, R., W. Waldron and Zigman, S. (1989), Temporal sequence of changes to the gray squirrel retina after near-UV exposure, Investigative Ophthalmology & Visual Science, 30:631-637), non-human primates (Tso, M. O. M. (1973), Photic maculopathy in rhesus monkey. A light and electron microscopic study. Investigative Ophthalmology & Visual Science, 12:17-34; Ham, W. T., Jr., Ruffolo, J. J., Jr., Mueller, H. A. and Guerry, D., III. (1980), The nature of retinal radiation damage: dependence on wavelength, power level and exposure time, Vision Research, 20:1105-1111; Sperling, H. G., Johnson, C. and Harwerth, R. S. (1980), Differential spectral photic damage to primate cones, Vision Research, 20:1117-1125: Sykes, S. M., Robison, W. G., Jr., Waxler, M. and Kuwabara, T. (1981), Damage to the monkey retina by broad spectrum fluorescent light, Investigative Ophthalmology & Visual Science, 20:425-434; Lawwill, T. (1982), Three major pathologic processes caused by light in the primate retina: A search for mechanisms, Transactions of the American Ophthalmology Society, 80:517-577), and man (Marshall, J. Hamilton, A. M. and Bird, A. C. (1975), Histopathology of ruby and argon laser lesions in monkey and human retina, British Journal of Ophthalmology, 59:610-630; Green, W. R. and Robertson, D. M. (1991), Pathologic findings of photic retinopathy in the human eye. American Journal of Ophthalmology, 112:520-27)."}, "[2]": {"details": "Drugs of the Future 1994; cited from earlier work"}, "[3]": {"target": "NR1A/NR2B subtype of the polyamine binding site of the NMDA receptor (Homo sapiens, UniProt Q05586+Q13224)", "sequence (Q13224 27-1484, other chains not shown)": "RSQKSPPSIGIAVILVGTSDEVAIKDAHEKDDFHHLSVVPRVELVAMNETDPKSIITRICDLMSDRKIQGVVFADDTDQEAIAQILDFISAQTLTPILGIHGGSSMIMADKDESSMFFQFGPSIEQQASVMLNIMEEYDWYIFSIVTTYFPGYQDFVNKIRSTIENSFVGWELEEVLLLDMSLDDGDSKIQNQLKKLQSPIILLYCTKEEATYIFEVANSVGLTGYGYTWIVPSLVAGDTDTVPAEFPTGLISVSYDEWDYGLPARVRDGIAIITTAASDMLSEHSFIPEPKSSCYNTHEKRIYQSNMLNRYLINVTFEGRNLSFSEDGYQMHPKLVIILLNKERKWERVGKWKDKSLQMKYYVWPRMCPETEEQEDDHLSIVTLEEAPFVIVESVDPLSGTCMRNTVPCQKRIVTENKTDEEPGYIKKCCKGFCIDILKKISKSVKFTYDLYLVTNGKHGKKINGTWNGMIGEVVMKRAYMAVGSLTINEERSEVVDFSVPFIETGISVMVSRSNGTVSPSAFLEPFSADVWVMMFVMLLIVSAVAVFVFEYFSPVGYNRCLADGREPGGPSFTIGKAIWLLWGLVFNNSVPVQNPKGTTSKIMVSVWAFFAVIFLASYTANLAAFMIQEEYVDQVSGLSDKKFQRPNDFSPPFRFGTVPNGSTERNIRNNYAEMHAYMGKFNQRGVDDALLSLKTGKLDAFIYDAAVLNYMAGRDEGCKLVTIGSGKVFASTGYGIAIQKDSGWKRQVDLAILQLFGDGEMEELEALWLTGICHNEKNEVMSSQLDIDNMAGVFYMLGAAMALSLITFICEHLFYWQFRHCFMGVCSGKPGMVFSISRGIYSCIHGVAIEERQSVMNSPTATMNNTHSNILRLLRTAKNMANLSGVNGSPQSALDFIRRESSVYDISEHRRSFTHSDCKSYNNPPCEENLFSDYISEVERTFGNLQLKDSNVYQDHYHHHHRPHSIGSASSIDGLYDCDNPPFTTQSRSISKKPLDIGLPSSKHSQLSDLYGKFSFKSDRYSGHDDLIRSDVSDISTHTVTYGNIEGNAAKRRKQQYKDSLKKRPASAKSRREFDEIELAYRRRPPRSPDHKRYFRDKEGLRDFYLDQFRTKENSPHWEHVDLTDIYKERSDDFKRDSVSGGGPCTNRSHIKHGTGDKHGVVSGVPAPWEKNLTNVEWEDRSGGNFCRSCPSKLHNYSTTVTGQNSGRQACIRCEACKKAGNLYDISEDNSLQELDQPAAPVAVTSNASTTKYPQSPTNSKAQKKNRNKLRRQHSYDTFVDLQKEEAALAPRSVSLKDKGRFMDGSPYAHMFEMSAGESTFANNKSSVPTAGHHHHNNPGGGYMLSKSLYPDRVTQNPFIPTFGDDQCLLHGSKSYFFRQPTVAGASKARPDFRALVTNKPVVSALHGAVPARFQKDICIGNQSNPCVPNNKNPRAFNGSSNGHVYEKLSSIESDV", "details": "cited from earlier work"}, "[4]": {"system": "light induced functional or morphological changes", "test": "Light damage paradigms (light induced damage paradigm)", "details": "in vivo", "method": "Eliprodil was evaluated in our light induced damage paradigm, a model of retinal degenerative diseases such as retinitis pigmentosa and age-related macular degeneration."}, "NMDA receptor": {"system": "NMDA receptor", "test": "Binding affinity to the NMDA receptor", "details": "order of magnitude only"}, "[5]": {"details": "Drugs of the Future 1994; cited from earlier work", "remark": "listed apart in the source"}}, "data": [{"smiles": "OC(CN1CCC(Cc2ccc(F)cc2)CC1)c1ccc(Cl)cc1", "note": "(racemic) [Eliprodil, 2-[4-(4-fluorobenzyl)-piperidino]-1-(4-chlorophenyl)ethanol]", "values": [{"measurement": "Laser burn lesion area", "setting": "retinal laser burn; 10 mg/kg IP", "result": "55,411.67 μ^2"}, {"measurement": "reduction in laser lesion burn size", "setting": "retinal laser burn; 10 mg/kg IP", "result": "No reduction"}, {"measurement": "reduction of retinal burn area compared to vehicle", "setting": "retinal laser burn; IP, dose not given", "result": "approximately 60%"}, {"measurement": "significance of burn area reduction compared to vehicle", "setting": "retinal laser burn; IP, dose not given", "result": "significantly reduced"}, {"measurement": "average burn area", "setting": "retinal laser burn; IP, dose not given, vehicle 55,243.65, control 50,627.07", "result": "22,406 μ^2"}, {"measurement": "efficacy compared to R-eliprodil", "setting": "retinal laser burn; summary", "result": "twice as efficacious"}, {"measurement": "potency compared to R-eliprodil", "setting": "retinal laser burn; summary", "result": "two fold more potent"}, {"measurement": "reduction of collateral retinal damage around the laser burn (summary)", "setting": "retinal laser burn; summary", "result": "significant reduction"}, {"measurement": "dose dependence of protection of outer and inner retina function", "setting": "[1]", "result": "dose-dependent protection"}, {"measurement": "ERGs, % of normal", "setting": "[1]; ip, 2 mg/kg", "result": "approximately 32%"}, {"measurement": "protection of outer and inner retina function against light induced retinal degeneration", "setting": "[1]; ip, 2 mg/kg", "result": "not significantly different than vehicles"}, {"measurement": "ERGs, % of normal", "setting": "[1]; ip, 10 mg/kg", "result": "approximately 32%"}, {"measurement": "protection of outer and inner retina function against light induced retinal degeneration", "setting": "[1]; ip, 10 mg/kg", "result": "not significantly different than vehicles"}, {"measurement": "ERG a-wave, % of normal", "setting": "[1]; ip, 20 mg/kg", "result": 57, "unit": "%"}, {"measurement": "ERG a-wave, fold higher than vehicle dosed rats", "setting": "[1]; ip, 20 mg/kg", "result": 2.4, "unit": "fold"}, {"measurement": "ERG b-wave, % of normal", "setting": "[1]; ip, 20 mg/kg", "result": 53, "unit": "%"}, {"measurement": "ERG b-wave, fold higher than vehicle dosed rats", "setting": "[1]; ip, 20 mg/kg", "result": 2.2, "unit": "fold"}, {"measurement": "Maximum a-wave response amplitude, fold higher than vehicle dosed rats", "setting": "[1]; ip, 20 mg/kg", "result": 2.4, "unit": "fold"}, {"measurement": "maximum a-wave response amplitude", "setting": "[1]; ip, 20 mg/kg", "result": 395.82, "unit": "μV"}, {"measurement": "response amplitudes, % of normal", "setting": "[1]; ip, 20 mg/kg", "result": "approximately 60%"}, {"measurement": "Maximum a-wave response amplitude, fold higher than vehicle dosed rats", "setting": "[1]; ip, 40 mg/kg", "result": 2.25, "unit": "fold"}, {"measurement": "maximum a-wave response amplitude", "setting": "[1]; ip, 40 mg/kg", "result": 419.85, "unit": "μV"}, {"measurement": "protection of outer and inner retina function against light induced retinal degeneration", "setting": "[1]; ip, 40 mg/kg", "result": "significant protection"}, {"measurement": "response amplitudes, % of normal", "setting": "[1]; ip, 40 mg/kg", "result": "approximately 60%"}, {"measurement": "crossing of the blood-brain barrier", "setting": "[2]", "result": "effectively crosses the blood-brain barrier"}, {"measurement": "oral bioavailability", "setting": "[2]", "result": "orally bioavailable"}, {"measurement": "subtype preference of NMDA receptor block", "setting": "[3]", "result": "preferentially block"}, {"measurement": "preventing light induced functional or morphological changes", "setting": "[4]", "result": "completely protected"}, {"measurement": "binding affinity to the NMDA receptor", "setting": "NMDA receptor", "result": "nanomolar"}, {"measurement": "incidence of adverse effects upon administration", "setting": "[5]", "result": "low incidence of adverse effects"}]}]}
